# Data as given in patent US20090209556A1, “SOLUBLE GUANYLATE CYCLASE ACTIVATORS” (priority 2007, published 2009).
# Target: T1, Human recombinant sGC enzyme (Homo sapiens, UniProt Q02108+Q02153)
# T1 construct: purchased Axxora, LLC (San Diego, Calif.)
# T1 sequence (Q02153 1-619): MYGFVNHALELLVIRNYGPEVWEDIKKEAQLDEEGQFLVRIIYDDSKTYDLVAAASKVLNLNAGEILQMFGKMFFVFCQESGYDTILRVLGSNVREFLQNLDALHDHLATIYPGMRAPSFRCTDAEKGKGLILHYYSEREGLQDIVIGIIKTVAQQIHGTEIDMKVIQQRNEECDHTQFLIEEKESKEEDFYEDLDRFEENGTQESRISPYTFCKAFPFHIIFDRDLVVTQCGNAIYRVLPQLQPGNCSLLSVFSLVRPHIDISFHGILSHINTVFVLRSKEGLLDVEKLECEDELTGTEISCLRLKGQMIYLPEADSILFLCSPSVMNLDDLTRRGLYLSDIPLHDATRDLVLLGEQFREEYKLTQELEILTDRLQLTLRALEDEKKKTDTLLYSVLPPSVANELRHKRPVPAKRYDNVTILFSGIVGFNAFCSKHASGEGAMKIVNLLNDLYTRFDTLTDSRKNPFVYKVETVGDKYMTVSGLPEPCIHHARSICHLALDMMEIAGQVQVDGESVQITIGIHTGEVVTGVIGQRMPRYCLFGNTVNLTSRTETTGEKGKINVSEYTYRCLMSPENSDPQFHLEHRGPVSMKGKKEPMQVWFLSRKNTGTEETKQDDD
# T1 sequence (Q02108 1-690): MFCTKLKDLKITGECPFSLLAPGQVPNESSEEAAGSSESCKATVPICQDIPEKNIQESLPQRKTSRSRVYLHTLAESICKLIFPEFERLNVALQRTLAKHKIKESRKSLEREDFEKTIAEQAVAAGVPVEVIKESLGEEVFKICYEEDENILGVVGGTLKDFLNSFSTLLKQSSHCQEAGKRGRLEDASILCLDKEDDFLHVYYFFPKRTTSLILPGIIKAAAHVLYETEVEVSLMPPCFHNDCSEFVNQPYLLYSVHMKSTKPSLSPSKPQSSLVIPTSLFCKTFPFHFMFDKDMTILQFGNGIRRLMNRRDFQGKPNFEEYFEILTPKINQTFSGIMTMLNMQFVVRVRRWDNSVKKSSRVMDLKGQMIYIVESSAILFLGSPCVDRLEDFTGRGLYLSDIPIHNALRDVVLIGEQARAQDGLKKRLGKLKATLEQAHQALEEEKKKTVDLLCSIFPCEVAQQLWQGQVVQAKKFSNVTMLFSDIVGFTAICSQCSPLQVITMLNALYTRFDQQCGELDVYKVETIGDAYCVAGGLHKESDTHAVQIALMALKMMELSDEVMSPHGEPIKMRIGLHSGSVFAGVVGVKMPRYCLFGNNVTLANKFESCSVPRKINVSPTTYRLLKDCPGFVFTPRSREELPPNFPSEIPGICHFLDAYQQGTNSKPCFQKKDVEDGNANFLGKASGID
# Assay: Measurement of soluble guanylyl cyclase activation (enzyme-based), PCASA cell-free enzymatic assay, cGMP by HTRF
# Format: biochemical
# Conditions: purified sGC 0.1 ng, substrate GTP, 1 hr at 37° C.
# Experimental: Measurement of Soluble Guanylyl Cyclase ([…]) Activation (Enzyme-Based)
# Activities of test compounds against purified sGC were evaluated in PCASA assay which is a cell-free enzymatic assay.
# Human recombinant sGC enzyme with greater than 95% purity was obtained from Axxora, LLC (San Diego, Calif.). Compounds were incubated with 0.1 ng of sGC enzyme in presence of its substrate GTP for 1 hr at 37° C. At the end of the incubation period, the reaction was stopped and the amount of cGMP generated was measured by an HTRF-based assay (CisBio, 62GN2PEC), which detects the displacement of a fluorophore-labeled cGMP from its specific antibody.
# Inflection point, maximum % of activation, and EC50 were derived based on the plot of compound concentration vs % activation.
smiles,measurement,value
O=C(O)c1cnn(-c2cccc(-c3cc(Cl)ccc3OCc3ccc([C@H]4CC[C@H](C(F)(F)F)CC4)cc3)n2)c1C(F)(F)F [Example 9],EC50,1.7 nM
